According to ChEMBL document CHEMBL1135202, “Design, synthesis and evaluation of 4-imidazolylflavans as new leads for aromatase inhibition” (Bioorg Med Chem Lett, 2002):

Key:
Parameters in all cases: species or system Placenta
Aromatase [1] = target: T1, Aromatase (Homo sapiens, UniProt P11511); assay: Relative potency for aromatase inhibition in human placental microsomes compared to aminoglutethimide
T1 sequence (P11511 whole entry): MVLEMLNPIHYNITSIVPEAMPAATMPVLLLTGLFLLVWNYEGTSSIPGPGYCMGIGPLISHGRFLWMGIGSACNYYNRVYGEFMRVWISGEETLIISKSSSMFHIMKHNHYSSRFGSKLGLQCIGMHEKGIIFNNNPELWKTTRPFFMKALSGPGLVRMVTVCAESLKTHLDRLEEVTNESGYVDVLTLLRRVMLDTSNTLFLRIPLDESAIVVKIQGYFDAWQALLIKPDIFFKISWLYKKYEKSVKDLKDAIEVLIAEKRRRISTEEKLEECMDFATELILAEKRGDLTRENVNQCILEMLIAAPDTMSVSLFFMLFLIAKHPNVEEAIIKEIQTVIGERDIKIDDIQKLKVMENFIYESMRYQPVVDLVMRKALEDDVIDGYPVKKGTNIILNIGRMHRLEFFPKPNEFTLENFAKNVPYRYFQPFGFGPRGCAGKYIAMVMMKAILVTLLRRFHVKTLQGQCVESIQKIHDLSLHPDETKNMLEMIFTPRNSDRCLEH

Aromatase [2] = target: T1, Aromatase; assay: Inhibition of aromatase activity in human placental microsomes
Aromatase [3] = target: T1, Aromatase; assay: Relative potency for aromatase inhibition in human placental microsomes compared to flavanone

Relative potency (Aromatase [1]): 127 | IC50 (Aromatase [2]): 41 nM | Relative potency (Aromatase [3]): 93
SMILES: Oc1ccc2c(c1)OC(c1ccccc1)CC2n1ccnc1 (stereo not drawn)
